Patent publication US7514582B2, “2′-substituted 1,1′-biphenyl-2-carboxamides, processes for their preparation, their use as medicaments, and pharmaceutical preparations comprising them” (Sanofi-Aventis Deutschland GmbH, priority 1999, dated 2009)
pIC50: −log10 of the molar value. Where two headings read alike, the source gives them in different places.

Molecular target: T1, Kv1.5 channels from humans (Homo sapiens, UniProt P22460)
T1 construct: expressed in transfected cells; host or cells: Xenopus laevis oocytes injected with in vitro synthesized RNA
Assay: Kv1.5 currents in Xenopus oocytes, two-microelectrode voltage clamp
Assay type: cell-based
Experimental: Kv1.5 channels from humans were expressed in Xenopus oocytes. For this, oocytes from Xenopus laevis were first isolated and defolliculated. RNA encoding Kv1.5 synthesized in vitro was then injected into these oocytes. After Kv1.5 protein expression for 1-7days, Kv1.5 currents were measured on the oocytes using the two-microelectrode voltage clamp technique. The Kv1.5 channels were in this case as a rule activated using voltage jumps to 0 mV and 40 mV lasting 500 ms. The bath was rinsed with a solution of the following composition: NaCl 96 mM, KCl 2 mM, CaCl2 1.8 mM, MgCl2 1 mM, HEPES 5 mM (titrated with NaOH to pH 7.4). These experiments were carried out at room temperature. The following were employed for data acquisition and analysis: Genedamp amplifier (Axon Instruments, Foster City, USA) and MacLab D/A converter and software (AD Instruments, Castle Hill, Australia). The substances according to the invention were tested by adding them in different concentrations to the bath solution. The effects of the substances were calculated as the percentage inhibition of the Kv1.5 control current which was obtained when no substance was added to the solution. The data were then extrapolated using the Hill equation in order to determine the inhibitory concentration IC50 for the respective substances.

[1] = human Kv1.5 expressed in Xenopus laevis oocytes, voltage jumps to 0 mV and 40 mV, 500 ms, room temperature, inhibition of Kv1.5 control current, Hill equation

T1 sequence (P22460 whole entry): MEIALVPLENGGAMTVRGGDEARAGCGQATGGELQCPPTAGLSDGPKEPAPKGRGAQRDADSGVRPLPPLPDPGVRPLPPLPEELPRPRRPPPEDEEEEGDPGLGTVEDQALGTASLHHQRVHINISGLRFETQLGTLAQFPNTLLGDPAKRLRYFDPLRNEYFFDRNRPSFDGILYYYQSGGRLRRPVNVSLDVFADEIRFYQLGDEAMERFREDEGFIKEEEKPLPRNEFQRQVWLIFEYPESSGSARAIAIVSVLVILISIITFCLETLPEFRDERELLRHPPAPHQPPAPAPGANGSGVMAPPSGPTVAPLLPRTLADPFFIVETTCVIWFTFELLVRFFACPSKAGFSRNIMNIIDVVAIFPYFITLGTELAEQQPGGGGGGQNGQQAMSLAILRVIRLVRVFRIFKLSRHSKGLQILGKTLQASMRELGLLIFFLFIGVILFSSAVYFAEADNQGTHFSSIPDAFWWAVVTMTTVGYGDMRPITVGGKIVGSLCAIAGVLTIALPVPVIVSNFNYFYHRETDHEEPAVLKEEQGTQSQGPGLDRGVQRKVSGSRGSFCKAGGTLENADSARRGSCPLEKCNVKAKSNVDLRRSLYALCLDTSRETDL

Row | SMILES | pIC50 | pIC50 [1]
1 | CC(OC(=O)NCc1ccccc1-c1ccccc1C(=O)NCCc1ccccn1)c1ccc(C(F)(F)F)cc1 (racemic) [1 f] | 6.40 | –
2 | O=C(NCc1ccccc1-c1ccccc1C(=O)NCCc1ccccc1)OCc1ccc(C(F)(F)F)cc1 [1 a] | 5.21 | –
3 | O=C(NCc1ccccc1-c1ccccc1C(=O)NCCc1ccccc1)OCc1ccccc1 [1 b] | 5.48 | –
4 | O=C(NCc1ccccc1-c1ccccc1C(=O)NCCc1ccccn1)OCc1ccc(C(F)(F)F)cc1 [1 d] | 6.00 | –
5 | O=C(NCc1ccccc1-c1ccccc1C(=O)NCCc1ccccn1)OCc1ccc(F)cc1 [1 e] | 6.30 | –
6 | C[C@H](OC(=O)NCc1ccccc1-c1ccccc1C(=O)NCCc1ccccn1)c1ccc(C(F)(F)F)cc1 [1 g] | 6.40 | –
7 | C[C@@H](OC(=O)NCc1ccccc1-c1ccccc1C(=O)NCCc1ccccn1)c1ccc(C(F)(F)F)cc1 [1 h] | 5.37 | –
8 | O=C(NCc1ccccc1-c1ccccc1C(=O)NCCc1ccccn1)OCCCC(F)(F)F [1 i] | 5.77 | –
9 | CC(OC(=O)NCc1ccccc1-c1ccccc1C(=O)NCCc1ccccn1)c1ccccc1C(F)(F)F (stereo not drawn) [1 l] | 5.85 | –
10 | CC(OC(=O)NCc1ccccc1-c1ccccc1C(=O)NCCc1ccccn1)c1cccc(C(F)(F)F)c1 (stereo not drawn) [1 m] | 6.15 | –
11 | CC(OC(=O)NCc1ccccc1-c1ccccc1C(=O)NCCc1ccccn1)c1c(F)cccc1F (stereo not drawn) [1 n] | 5.85 | –
12 | C[C@@H](OC(=O)NCc1ccccc1-c1ccccc1C(=O)NCc1ccc(F)cc1F)c1ccccc1 [1 o] | 5.36 | –
13 | CCC[C@H](OC(=O)NCc1ccccc1-c1ccccc1C(=O)NCCc1ccccn1)c1ccccc1 [1 r] | 6.10 | –
14 | O=C(NCc1ccccc1-c1ccccc1C(=O)NCc1ccc(F)cc1F)OCc1ccc(F)cc1 [1 s] | 5.77 | –
15 | O=C(NCc1ccccc1-c1ccccc1C(=O)NCc1ccc(F)cc1F)OCCCC(F)(F)F [1 t] | 5.89 | –
16 | O=C(NCc1ccccc1-c1ccccc1C(=O)NCc1ccccn1)OCc1ccccc1 [1 u] | 6.10 | –
17 | CCCCOC(=O)NCc1ccccc1-c1ccccc1C(=O)NCCC(C)C [2 d] | 5.77 | –
18 | CC(C)CCNC(=O)c1ccccc1-c1ccccc1CNC(=O)OCc1ccccc1Cl [2 e] | 5.47 | –
19 | COC(=O)c1ccc(OC(=O)NCc2ccccc2-c2ccccc2C(=O)NCCC(C)C)cc1 [2 h] | 5.60 | –
20 | CC(C)(C)COC(=O)NCc1ccccc1-c1ccccc1C(=O)NCCc1ccccc1 [2 i] | 5.48 | –
21 | O=C(NCc1ccccc1-c1ccccc1C(=O)NCc1ccc(F)cc1F)Oc1ccc(F)cc1 [2 j] | 5.60 | –
22 | O=C(NCc1ccccc1-c1ccccc1C(=O)NCc1ccc(F)cc1F)Oc1ccccc1 [2 k] | 5.42 | –
23 | O=C(NCCc1ccccc1)c1ccccc1-c1ccccc1CNS(=O)(=O)c1ccccc1 [3 d] | 5.77 | –
24 | O=C(NCc1ccccc1)c1ccccc1-c1ccccc1CNS(=O)(=O)c1cccc(F)c1 [3 k] | 5.62 | –
25 | O=C(NCCc1ccccn1)c1ccccc1-c1ccccc1CNS(=O)(=O)c1ccccc1 [3 p] | 5.72 | –
26 | O=C(NCCc1ccccn1)c1ccccc1-c1ccccc1CNS(=O)(=O)c1cccc(F)c1 [3 r] | 5.82 | –

Row | SMILES | pIC50 | pIC50 [1]
27 | COc1ccc(CC(=O)NCc2ccccc2-c2ccccc2C(=O)NCCc2ccccn2)cc1 [4 d] | 5.74 | –
28 | COc1ccc(CC(=O)NCc2ccccc2-c2ccccc2C(=O)Nc2ccc(OC)cc2)cc1 [4 g] | 5.47 | –
29 | COc1ccc(NC(=O)c2ccccc2-c2ccccc2CNC(=O)CCc2ccccc2)cc1 [4 h] | 5.74 | –
30 | COc1ccc(CC(=O)NCc2ccccc2-c2ccccc2C(=O)NCCc2ccncc2)cc1 [4 j] | 5.15 | –
31 | CCOc1ccc(CCC(=O)NCc2ccccc2-c2ccccc2C(=O)NCCc2ccccn2)cc1 [4 k] | 5.66 | –
32 | CC(CC(=O)NCc1ccccc1-c1ccccc1C(=O)NCCc1ccccn1)c1ccccc1 (stereo not drawn) [4 l] | 6.10 | –
33 | O=C(NCc1ccccc1)NCc1ccccc1-c1ccccc1C(=O)NCCc1ccccn1 [5 c] | 5.11 | –
34 | C[C@H](NC(=O)NCc1ccccc1-c1ccccc1C(=O)NCCc1ccccn1)c1ccccc1 [5 d] | 5.72 | –
35 | C[C@@H](NC(=O)NCc1ccccc1-c1ccccc1C(=O)NCCc1ccccn1)c1ccccc1 [5 e] | 5.14 | –
36 | CN(Cc1ccccc1)C(=O)c1ccccc1-c1ccccc1CNC(=O)OCc1ccccc1 [6 a] | 5.36 | –
37 | O=C(NCc1ccccc1-c1ccccc1C(=O)NC1CCCCC1)OCc1ccccc1 [6 b] | 5.74 | –
38 | O=C(NCc1ccccc1-c1ccccc1C(=O)Nc1ccccc1)OCc1ccccc1 [6 c] | 5.60 | –
39 | CN(CCc1ccccn1)C(=O)c1ccccc1-c1ccccc1CNC(=O)OCc1ccccc1 [6 d] | 5.51 | –
40 | CCCCN(CCCC)C(=O)c1ccccc1-c1ccccc1CNC(=O)OCc1ccccc1 [6 e] | 5.44 | –
41 | O=C(NCc1ccccc1-c1ccccc1C(=O)NCC(F)(F)F)OCc1ccccc1 [6 h] | 5.52 | –
42 | O=C(NCc1ccccc1-c1ccccc1C(=O)NCCc1cccc[n+]1[O-])OCc1ccccc1 [7 a] | ~5.22 | –
43 | O=C(NCc1ccccc1-c1ccccc1C(=O)NCCc1cccnc1)OCc1ccccc1 [8 aa] | 6.10 | –
44 | O=C(NCc1ccccc1-c1ccccc1C(=O)NCCc1ccncc1)OCc1ccccc1 [8 ab] | 5.92 | –
45 | CC(C)C[C@@H](NC(=O)c1ccccc1-c1ccccc1CNC(=O)OCc1ccccc1)C(N)=O [8 ac] | 5.96 | –
46 | COC(=O)[C@H](Cc1ccccc1)NC(=O)c1ccccc1-c1ccccc1CNC(=O)OCc1ccccc1 [8 b] | 6.05 | –
47 | CC(C)(C)OC(=O)NCc1ccccc1-c1ccccc1C(=O)NCc1ccccn1 [8 d] | 5.19 | –
48 | CC(C)(C)OC(=O)NCc1ccccc1-c1ccccc1C(=O)Nc1ccc(F)cc1 [8 k] | 5.51 | –
49 | CC(C)(C)OC(=O)NCc1ccccc1-c1ccccc1C(=O)N[C@@H](CO)Cc1ccccc1 [8 m] | 5.28 | –
50 | COC(=O)C(Cc1ccccn1)NC(=O)c1ccccc1-c1ccccc1CNC(=O)OC(C)(C)C (stereo not drawn) [8 n] | 5.43 | –
51 | CC(C)(C)OC(=O)NCc1ccccc1-c1ccccc1C(=O)NCCc1ccccn1 [8 o] | 5.08 | –
52 | CC(C)C(NC(=O)c1ccccc1-c1ccccc1CNC(=O)OCc1ccccc1)C(N)=O (stereo not drawn) [8 p] | 5.85 | –

Row | SMILES | pIC50 | pIC50 [1]
53 | CCN(Cc1ccncc1)C(=O)c1ccccc1-c1ccccc1CNC(=O)OCc1ccccc1 [8 q] | 5.14 | –
54 | COC(=O)C(CC(C)C)NC(=O)c1ccccc1-c1ccccc1CNC(=O)OCc1ccccc1 (stereo not drawn) [8 r] | 6.00 | –
55 | O=C(NCc1ccccc1-c1ccccc1C(=O)NCCCC(F)(F)F)OCc1ccccc1 [8 s] | 6.00 | –
56 | CN(C)c1ccc(CNC(=O)c2ccccc2-c2ccccc2CNC(=O)OCc2ccccc2)cc1 [8 x] | 5.48 | –
57 | CC(C)NC(=O)CNC(=O)c1ccccc1-c1ccccc1CNC(=O)OCc1ccccc1 [8 y] | 5.55 | –
58 | COC(=O)C(Cc1ccccn1)NC(=O)c1ccccc1-c1ccccc1CNC(=O)OCc1ccccc1 (stereo not drawn) [8 z] | 5.80 | –
59 | O=C(NCCc1ccccn1)c1ccccc1-c1ccccc1CNC(=S)Nc1ccccc1 [9 c] | 5.70 | –
60 | O=C(NCCc1ccccn1)c1ccccc1-c1ccccc1CNC(=S)NCc1ccccc1 [9 f] | 5.66 | –
61 | O=C(NCc1ccccn1)c1ccccc1-c1ccccc1CNC(=S)NCCc1ccccc1 [9 g] | – | 5.66
62 | COc1ccc(NC(=O)NCc2ccccc2-c2ccccc2C(=O)NCCc2ccccn2)cc1 [11 a] | – | 5.64
63 | O=C(NCc1ccccc1-c1ccccc1C(=O)NCCc1ccccn1)Nc1ccc(F)cc1F [11 b] | 5.14 | –
64 | O=C(NCc1ccccc1-c1ccccc1C(=O)NCc1ccccn1)Nc1ccc(C(F)(F)F)cc1 [11 d] | – | 5.48
65 | COCCNC(=O)c1ccccc1-c1ccccc1CNC(=O)Nc1ccc(Cl)cc1 [11 g] | 5.11 | –
66 | COc1cc(CNC(=O)c2ccccc2-c2ccccc2CNC(=O)Nc2ccc(F)cc2F)cc(OC)c1OC [11 h] | – | 5.24
67 | O=C(NCc1ccccc1-c1ccccc1C(=O)NCCc1ccccn1)Nc1ccc(Cl)cc1 [11 l] | – | 5.57
68 | O=C(NCc1ccccc1-c1ccccc1C(=O)NCCc1ccccn1)Nc1ccc(C(F)(F)F)cc1 [11 m] | 5.48 | –
69 | O=C(NCc1ccccc1-c1ccccc1C(=O)NCc1ccccn1)Nc1ccc(F)cc1F [11 n] | 5.23 | –
70 | O=C(NCc1ccccc1-c1ccccc1C(=O)NCCc1ccccn1)Nc1cccc(C(F)(F)F)c1 [11 o] | 5.36 | –
71 | O=C(NCc1ccccc1-c1ccccc1C(=O)NCCOc1ccccc1)Nc1ccc(F)cc1F [11 p] | 5.14 | –
72 | Cc1cccc(S(=O)(=O)NCc2ccccc2-c2ccccc2C(=O)N[C@@H](Cc2ccccc2)C(N)=O)c1 [12 f] | 4.95 | –
73 | CC(C)C[C@H](NC(=O)c1ccccc1-c1ccccc1CNC(=O)OCc1ccccc1)C(=O)Nc1ccccc1 [13 b] | ~5.52 | –
74 | CC(C)C[C@H](NC(=O)c1ccccc1-c1ccccc1CNC(=O)OCc1ccccc1)C(=O)NCc1ccccc1 [13 c] | 5.85 | –
75 | CC(C)C[C@H](NC(=O)c1ccccc1-c1ccccc1CNC(=O)OCc1ccccc1)C(=O)NCC(F)(F)F [13 d] | 6.30 | –
76 | CC(C)CCNC(=O)[C@H](CC(C)C)NC(=O)c1ccccc1-c1ccccc1CNC(=O)OCc1ccccc1 [13 e] | 5.55 | –
77 | COc1ccc(C(=O)NCc2ccccc2-c2ccccc2C(=O)N[C@@H](CC(C)C)C(=O)NCC(F)(F)F)cc1 [13 f] | 5.47 | –
78 | CC(C)C[C@H](NC(=O)c1ccccc1-c1ccccc1CNC(=O)CCc1ccccc1)C(=O)NCC(F)(F)F [13 g] | 5.96 | –
